Results as given in patent US20130274276A1, “METHODS AND COMPOSITIONS FOR DETERMINING VIRUS SUSCEPTIBILITY TO NON-NUCLEOSIDE REVERSE TRANSCRIPTASE INHIBITORS” (Laboratory Corporation of America Holdings, priority 2012, published 2013).

Experiments:
Format in all cases: cell-based
[1] = system: HIV strain derived from an infected patient having a Y188L mutation; experiment: PhenoSenseGT report, susceptibility analysis of patient-derived HIV; conditions: fold change in IC50 greater than the biological cutoff (BCO) for those drugs, FIG. 3
Procedure: FIG. 3 is a sample PhenoSenseGT® report showing the results of susceptibility analyses to various nucleoside reverse transcriptase inhibitors (NRTIs), non-nucleoside reverse transcriptase inhibitors (NNRTIs), and protease inhibitors (PIs).
Drug susceptibility tests performed with resistance test vectors were carried out using packaging host and target host cells consisting of the human embryonic kidney cell line 293. Susceptibility tests were carried out with the RTV libraries by using viral particles comprising the RTV libraries to infect a host cell in which the expression of the indicator gene is measured. The amount of indicator gene (luciferase) activity detected in infected cells is used as a direct measure of “infectivity,” i.e., the ability of the virus to complete a single round of replication. Thus, drug susceptibility can be determined by plotting the amount of luciferase activity produced by patient derived viruses in the presence of varying concentrations of the antiviral drug. By identifying the concentration of drug at which luciferase activity is half-maximum, the IC50 of the virus from which patient-derived segment(s) were obtained for the antiretroviral agent can be determined. The IC50 provides a direct measure of the susceptibility of the HIV infecting the patient to the drug. […]

[2] = system: HIV clinical specimens with Y188L and no known RPV resistance associated mutations; experiment: In-silico site directed mutagenesis (isSDM) analysis of matched phenotype/genotype database of clinical specimens; conditions: 286 clinical specimens with Y188L and no known RPV resistance associated mutations; biological cutoff FC=2
Procedure: Rilpivirine (RPV) is a recently approved non-nucleoside reverse transcriptase inhibitor (NNRTI). […] Correlation analysis was performed among clinical specimens with both phenotypic and genotypic data (N=20,004). A novel mutation associated with phenotypic reduced rilpivirine susceptibility was identified, Y188L, as determined by a fold change in IC50 (FC) greater than the biological cutoff (BCO) for rilpivirine (FC=2).
(§1) Site-directed mutagenesis (SDM) was performed to verify the association of Y188L with RPV resistance. The impact of this mutation was also evaluated and compared to the existing RPV RAMs (K101E/P, E138A/G/K/Q/R, V179L, Y181C/I/V, H221Y, F227C, and M230I/L) by performing in-silico site directed mutagenesis (is SDM) as a method for analyzing samples in the database that have wild type amino acids at RPV resistance positions except for the single mutation of interest. Samples were not excluded based on other NNRTI RAMs, or their NRTI and PI profile. In the is SDM analysis, fold change (FC) distribution of samples with each mutation was compared to specimens without the mutation, and the difference was evaluated for statistical significance using Mann-Whitney test.
Drug susceptibility tests performed with resistance test vectors were carried out using packaging host and target host cells consisting of the human embryonic kidney cell line 293. […]

[3] = system: HIV engineered to contain the Y188L reverse transcriptase mutation
Procedure: as §1, with “test. […]” for “test.”
Drug susceptibility tests performed with resistance test vectors were carried out using packaging host and target host cells consisting of the human embryonic kidney cell line 293. Susceptibility tests were carried out with the RTV libraries by using viral particles comprising the RTV libraries to infect a host cell in which the expression of the indicator gene is measured. The amount of indicator gene (luciferase) activity detected in infected cells is used as a direct measure of “infectivity,” i.e., the ability of the virus to complete a single round of replication. […]

| SMILES | susceptibility of HIV with Y188L mutation (fold change in IC50 relative to biological cutoff) [1] | median fold change in IC50 (FC) of clinical specimens with Y188L [2] [fold] | fold change in IC50 (FC) of the Y188L site directed mutant [3] [fold] |
| --- | --- | --- | --- |
| O=C1Nc2ccc(Cl)cc2[C@@](C#CC2CC2)(C(F)(F)F)O1 [efavirenz] | reduced susceptibility |  |  |
| Cc1ccnc2c1NC(=O)c1cccnc1N2C1CC1 [nevirapine] | reduced susceptibility |  |  |
| Cc1cc(/C=C/C#N)cc(C)c1Nc1ccnc(Nc2ccc(C#N)cc2)n1 [rilpivirine] |  | 9.2 | 6.1 |
